Among the data in PubChem BioAssay AID256 (DTP/NCI, 2004) are T/C values, retold here.

The assay concerns CD2F1 mice, L1210 leukemia ip, survival T/C. The assay is described as follows: NCI In Vivo Anticancer Drug Screen. Data for tumor model L1210 Leukemia (intraperitoneal) in CD2F1 (CDF1) mice. Conditions: higher = longer survival. In a few lines: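 Read-out first: treated-group measurement over vehicle-control measurement, expressed as a ratio. Animals bore a transplanted tumor line and were dosed with compound or vehicle.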

The mark [1] stands for this setting: endpoint: mean survival time, dose: 100.0 mg/kg/injection, schedule: Q04DX002 (ip), vehicle: saline with Tween-80.
The mark [2] stands for this setting: endpoint: mean survival time, dose: 200.0 mg/kg/injection, schedule: Q04DX002 (ip), vehicle: saline with Tween-80.
The mark [3] stands for this setting: endpoint: mean survival time, dose: 50.0 mg/kg/injection, schedule: Q01DX009 (ip), vehicle: saline with Tween-80.
[4] abbreviates: endpoint: mean survival time, dose: 100.0 mg/kg/injection, schedule: Q01DX009 (ip), vehicle: saline with Tween-80.
Where [5] appears, read: endpoint: mean survival time, dose: 100.0 mg/kg/injection, schedule: Q01DX001 (ip), vehicle: saline with Tween-80.
[6] abbreviates: endpoint: mean survival time, dose: 200.0 mg/kg/injection, schedule: Q01DX001 (ip), vehicle: saline with Tween-80.
Where [7] appears, read: endpoint: mean survival time, dose: 400.0 mg/kg/injection, schedule: Q01DX001 (ip), vehicle: saline with Tween-80.
[8] abbreviates: endpoint: mean survival time, dose: 100.0 mg/kg/injection, schedule: Q04DX002 (ip), vehicle: saline.
[9] abbreviates: endpoint: mean survival time, dose: 200.0 mg/kg/injection, schedule: Q01DX009 (ip), vehicle: saline with Tween-80.
The mark [10] stands for this setting: endpoint: mean survival time, dose: 400.0 mg/kg/injection, schedule: Q01DX009 (ip), vehicle: saline with Tween-80.

Where “and” joins values, the source holds several entries; their conditions need not be identical. Equal values may be shown once. Inconclusive results and toxic doses are left out.

`CCOC(=O)C(C(C)=O)C(C)C` (stereo not drawn): the T/C was 95 % of control (endpoint: mean survival time, dose: 25.0 mg/kg/injection, schedule: Q01DX009 (ip), vehicle: water); 102 % of control (endpoint: mean survival time, dose: 50.0 mg/kg/injection, schedule: Q01DX009 (ip), vehicle: water); 102 % of control (endpoint: mean survival time, dose: 100.0 mg/kg/injection, schedule: Q01DX009 (ip), vehicle: water); 97 % of control (endpoint: mean survival time, dose: 200.0 mg/kg/injection, schedule: Q01DX009 (ip), vehicle: water); 97 % of control (endpoint: mean survival time, dose: 400.0 mg/kg/injection, schedule: Q01DX009 (ip), vehicle: water).

With `O=C1c2ccccc2C(=O)N1Cc1cc([N+](=O)[O-])ccc1Cl`, the T/C runs as follows: (endpoint: mean survival time, dose: 50.0 mg/kg/injection, schedule: Q01DX009 (ip), vehicle: Klucel (hydroxypropylcellulose) (HPC)) 92 % of control; (endpoint: mean survival time, dose: 100.0 mg/kg/injection, schedule: Q01DX009 (ip), vehicle: Klucel (hydroxypropylcellulose) (HPC)) 94 % of control; (endpoint: mean survival time, dose: 200.0 mg/kg/injection, schedule: Q01DX009 (ip), vehicle: Klucel (hydroxypropylcellulose) (HPC)) 90 % of control.

As for `CC([NH-])CC(C)[NH-].O=[N+]([O-])O.O=[N+]([O-])O.[Pt+2]` (stereo not drawn), the T/C is 154 % of control (endpoint: mean survival time, dose: 6.25 mg/kg/injection, schedule: Q04DX003 (ip), vehicle: saline); 247 % of control (endpoint: mean survival time, dose: 12.5 mg/kg/injection, schedule: Q04DX003 (ip), vehicle: saline); 207 % of control (endpoint: mean survival time, dose: 25.0 mg/kg/injection, schedule: Q04DX003 (ip), vehicle: saline).

As to `Cc1cccc(NC(=O)/C=C/c2ccccc2)c1C`, the T/C reads like this: under setting [1], 98 % of control; under setting [2], 94 % of control; (endpoint: mean survival time, dose: 400.0 mg/kg/injection, schedule: Q04DX002 (ip), vehicle: saline with Tween-80) 94 % of control.

`C=C(NC(=O)C(=C)NC(=O)c1csc(C2=NC3c4csc(n4)C4NC(=O)c5csc(n5)C(C(C)(O)C(C)O)NC(=O)C5CSC(=N5)/C(=C/C)NC(=O)C(C(C)O)NC(=O)c5csc(n5)C3(CC2)NC(=O)C(C)NC(=O)C(=C)NC(=O)C(C)NC(=O)C(C(C)CC)NC2C=Cc3c(C(C)O)cc(nc3C2O)C(=O)OC4C)n1)C(N)=O` (stereo not drawn): for the setting “endpoint: mean survival time, dose: 118.0 mg/kg/injection, schedule: Q04DX003 (ip), vehicle: saline”, the T/C was 117 % of control.

Regarding `CCN(CCP(c1ccccc1)c1ccccc1)CCP(c1ccccc1)c1ccccc1`, the T/C runs as follows: (endpoint: mean survival time, dose: 150.0 mg/kg/injection, schedule: Q01DX001 (ip), vehicle: other) 110 % of control; (endpoint: mean survival time, dose: 300.0 mg/kg/injection, schedule: Q01DX001 (ip), vehicle: other) 115 % of control.

As for `COc1ccc(NC(=O)Oc2ccc(C3CCCCC3)cc2)cc1`, the T/C (endpoint: mean survival time, dose: 25.0 mg/kg/injection, schedule: Q01DX009 (ip), vehicle: saline with Tween-80) is 97 % of control; the T/C (endpoint: mean survival time, dose: 25.0 mg/kg/injection, schedule: Q04DX002 (ip), vehicle: saline with Tween-80) is 104 % of control; the T/C under setting [3] was 93 % of control; the T/C (endpoint: mean survival time, dose: 50.0 mg/kg/injection, schedule: Q04DX002 (ip), vehicle: saline with Tween-80) was 104 % of control; the T/C under setting [4] was 89 % of control; the T/C under setting [1] is 101 % of control. Besides, the T/C under setting [2] is 108 % of control.

For `CCOC(=O)N/N=C/c1ccccc1`, the T/C is, setting by setting: under setting [5], 103 % of control; under setting [6], 108 % of control; under setting [7], 110 % of control.

With `O=C1OC(C(O)CO)C(O)=C1O` (stereo not drawn), the T/C reads like this: (endpoint: mean survival time, dose: 100.0 mg/kg/injection, schedule: Q01DX001 (ip), vehicle: saline) 101 % of control; (endpoint: mean survival time, dose: 100.0 mg/kg/injection, schedule: Q01DX009 (ip), vehicle: saline) 93 % of control and 108 % of control; under setting [8], 109 % of control and 112 % of control; (endpoint: mean survival time, dose: 100.0 mg/kg/injection, schedule: Q04DX003 (ip), vehicle: saline) 106 % of control; (endpoint: mean survival time, dose: 200.0 mg/kg/injection, schedule: Q01DX001 (ip), vehicle: saline) 101 % of control; (endpoint: mean survival time, dose: 200.0 mg/kg/injection, schedule: Q01DX009 (ip), vehicle: saline) 86 % of control and 102 % of control. For the same compound, the T/C is 97 % of control and 104 % of control (endpoint: mean survival time, dose: 200.0 mg/kg/injection, schedule: Q04DX002 (ip), vehicle: saline); 98 % of control (endpoint: mean survival time, dose: 200.0 mg/kg/injection, schedule: Q04DX003 (ip), vehicle: saline); 106 % of control (endpoint: mean survival time, dose: 400.0 mg/kg/injection, schedule: Q01DX001 (ip), vehicle: saline); 89 % of control and 96 % of control (endpoint: mean survival time, dose: 400.0 mg/kg/injection, schedule: Q01DX009 (ip), vehicle: saline); 96 % of control and 102 % of control (endpoint: mean survival time, dose: 400.0 mg/kg/injection, schedule: Q04DX002 (ip), vehicle: saline); 98 % of control (endpoint: mean survival time, dose: 400.0 mg/kg/injection, schedule: Q04DX003 (ip), vehicle: saline).

In the case of `CCOC(=O)Nc1ccc(F)cc1F`, the T/C was 94 % of control under setting [4], 94 % of control under setting [9] and 100 % of control under setting [10].

In the case of `CCCCCCCCCCCC(=O)OCCN(C=O)C[n+]1ccccc1`, the T/C under setting [8] is 101 % of control.

Consider `Cc1ccc(NS(=O)(=O)c2ccc([N+](=O)[O-])cc2)cc1`, for which the T/C was 93 % of control under setting [4], 98 % of control under setting [9] and 105 % of control under setting [10].

With `COc1ccc(CC(=O)O)cc1OC`, the T/C by setting is: under setting [4], 94 % of control; under setting [9], 103 % of control; under setting [10], 89 % of control.

As to `CCCCOC(=O)c1ccc(OC(=O)Nc2ccc(C)cc2[N+](=O)[O-])cc1`, the T/C was 102 % of control (endpoint: mean survival time, dose: 25.0 mg/kg/injection, schedule: Q01DX009 (ip), vehicle: saline + alcohol); 109 % of control (endpoint: mean survival time, dose: 50.0 mg/kg/injection, schedule: Q01DX001 (ip), vehicle: saline with Tween-80); 108 % of control (endpoint: mean survival time, dose: 50.0 mg/kg/injection, schedule: Q01DX009 (ip), vehicle: saline + alcohol); 113 % of control under setting [5]; 103 % of control (endpoint: mean survival time, dose: 100.0 mg/kg/injection, schedule: Q01DX009 (ip), vehicle: saline + alcohol); 109 % of control under setting [6]. Further, the T/C by setting is: (endpoint: mean survival time, dose: 200.0 mg/kg/injection, schedule: Q01DX009 (ip), vehicle: saline + alcohol) 101 % of control; under setting [7], 107 % of control.

Regarding `N=C(CN1CCCCC1)N1CCCCC1`, the T/C is, setting by setting: (endpoint: mean survival time, dose: 25.0 mg/kg/injection, schedule: Q04DX002 (ip), vehicle: saline) 104 % of control; (endpoint: mean survival time, dose: 50.0 mg/kg/injection, schedule: Q04DX002 (ip), vehicle: saline) 101 % of control; under setting [8], 112 % of control.

On to `Cc1nn(-c2ccccc2)c2[nH]cnc(=S)c12`, for which the T/C (endpoint: mean survival time, dose: 12.5 mg/kg/injection, schedule: Q01DX005 (ip), vehicle: other) was 86 % of control; the T/C (endpoint: mean survival time, dose: 25.0 mg/kg/injection, schedule: Q01DX005 (ip), vehicle: other) was 91 % of control; the T/C (endpoint: mean survival time, dose: 50.0 mg/kg/injection, schedule: Q01DX005 (ip), vehicle: other) was 92 % of control; the T/C (endpoint: mean survival time, dose: 100.0 mg/kg/injection, schedule: Q01DX005 (ip), vehicle: other) is 97 % of control; the T/C (endpoint: mean survival time, dose: 200.0 mg/kg/injection, schedule: Q01DX005 (ip), vehicle: other) is 93 % of control.

Take `CC1C2C=CC(C2)C1C(=O)O` (stereo not drawn): the T/C is, setting by setting: under setting [3], 93 % of control; under setting [4], 96 % of control and 98 % of control; under setting [9], 100 % of control and 87 % of control.

With `CC[C@@]1(OC(=O)CN2CCCC2)C(=O)OCc2c1cc1n(c2=O)Cc2cc3ccccc3nc2-1`, the T/C runs as follows: (endpoint: median survival time, dose: 6.25 mg/kg/injection, schedule: Q04DX002 (ip), vehicle: water) 108 % of control; (endpoint: median survival time, dose: 12.5 mg/kg/injection, schedule: Q04DX002 (ip), vehicle: water) 113 % of control; (endpoint: median survival time, dose: 50.0 mg/kg/injection, schedule: Q04DX002 (ip), vehicle: water) 158 % of control and 166 % of control.

Take `[Pd+2].[S-]CC[S-]`: the T/C (endpoint: mean survival time, dose: 3.13 mg/kg/injection, schedule: Q04DX003 (ip), vehicle: distilled water + Tween-80) is 101 % of control; the T/C (endpoint: mean survival time, dose: 6.25 mg/kg/injection, schedule: Q04DX003 (ip), vehicle: distilled water + Tween-80) was 102 % of control; the T/C (endpoint: mean survival time, dose: 12.5 mg/kg/injection, schedule: Q04DX003 (ip), vehicle: distilled water + Tween-80) is 101 % of control; the T/C (endpoint: mean survival time, dose: 25.0 mg/kg/injection, schedule: Q04DX003 (ip), vehicle: distilled water + Tween-80) was 104 % of control; the T/C (endpoint: mean survival time, dose: 50.0 mg/kg/injection, schedule: Q04DX003 (ip), vehicle: distilled water + Tween-80) was 95 % of control; the T/C (endpoint: mean survival time, dose: 100.0 mg/kg/injection, schedule: Q04DX003 (ip), vehicle: distilled water + Tween-80) was 95 % of control. Besides, the T/C (endpoint: mean survival time, dose: 200.0 mg/kg/injection, schedule: Q04DX003 (ip), vehicle: distilled water + Tween-80) is 95 % of control.
